Each structure is given as a SMILES string. Where only a bound is given, the exact number is not on record here.

Data on 32 compounds can be found in ChEMBL document CHEMBL3286254, “Structure-guided discovery of 1,3,5 tri-substituted benzenes as potent and selective matriptase inhibitors exhibiting in vivo antitumor efficacy” (Bioorg Med Chem, 2014).

In one assay the target is Prothrombin (Homo sapiens, UniProt P00734). The experiment in a line: Inhibition of human thrombin using Boc-Gln-Ala-Arg-7-amido-4-methyl coumarin hydrobromide.
Assay [1] deals with T1, Suppressor of tumorigenicity 14 protein (Homo sapiens, UniProt Q9Y5Y6).
T1 sequence (Q9Y5Y6 whole entry): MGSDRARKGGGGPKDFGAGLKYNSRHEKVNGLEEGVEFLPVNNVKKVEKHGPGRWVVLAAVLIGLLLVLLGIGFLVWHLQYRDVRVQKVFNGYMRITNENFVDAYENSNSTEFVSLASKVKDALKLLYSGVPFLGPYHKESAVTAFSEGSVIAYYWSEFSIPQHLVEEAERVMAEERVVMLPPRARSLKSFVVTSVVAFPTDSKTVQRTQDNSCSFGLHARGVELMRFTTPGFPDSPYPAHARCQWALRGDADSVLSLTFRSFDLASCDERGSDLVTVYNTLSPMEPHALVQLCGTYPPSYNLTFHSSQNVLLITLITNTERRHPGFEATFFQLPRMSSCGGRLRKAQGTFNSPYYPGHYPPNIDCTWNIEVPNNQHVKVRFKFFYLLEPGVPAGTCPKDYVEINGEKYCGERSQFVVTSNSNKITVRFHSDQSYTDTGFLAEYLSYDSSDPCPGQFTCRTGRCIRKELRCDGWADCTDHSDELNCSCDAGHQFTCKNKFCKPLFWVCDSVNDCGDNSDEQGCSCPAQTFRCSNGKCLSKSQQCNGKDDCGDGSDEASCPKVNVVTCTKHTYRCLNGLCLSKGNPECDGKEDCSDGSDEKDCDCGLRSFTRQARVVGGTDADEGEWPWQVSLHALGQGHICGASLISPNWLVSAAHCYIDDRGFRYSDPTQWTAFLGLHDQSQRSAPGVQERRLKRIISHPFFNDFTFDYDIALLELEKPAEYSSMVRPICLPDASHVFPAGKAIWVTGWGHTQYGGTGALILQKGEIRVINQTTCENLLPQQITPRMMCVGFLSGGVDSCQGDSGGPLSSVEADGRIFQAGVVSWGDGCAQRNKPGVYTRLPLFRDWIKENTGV
The assay is described as follows: Inhibition of recombinant matriptase (unknown origin) using Boc-Gln-Ala-Arg-7-amido-4-methyl coumarin hydrobromide.

The target of a further assay is Coagulation factor X (Bos taurus, UniProt P00743). The experiment in a line: Inhibition of bovine plasma factor 10a using CH3OCO-D-CHA-Gly-Arg-pNA.AcoH substrate.
Sequence of Coagulation factor X (P00743 41-180 limits assumed): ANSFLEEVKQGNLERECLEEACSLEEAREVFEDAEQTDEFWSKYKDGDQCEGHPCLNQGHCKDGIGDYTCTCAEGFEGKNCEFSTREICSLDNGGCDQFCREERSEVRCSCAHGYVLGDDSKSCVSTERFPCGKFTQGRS
Sequence of Coagulation factor X (P00743 234-492 limits assumed): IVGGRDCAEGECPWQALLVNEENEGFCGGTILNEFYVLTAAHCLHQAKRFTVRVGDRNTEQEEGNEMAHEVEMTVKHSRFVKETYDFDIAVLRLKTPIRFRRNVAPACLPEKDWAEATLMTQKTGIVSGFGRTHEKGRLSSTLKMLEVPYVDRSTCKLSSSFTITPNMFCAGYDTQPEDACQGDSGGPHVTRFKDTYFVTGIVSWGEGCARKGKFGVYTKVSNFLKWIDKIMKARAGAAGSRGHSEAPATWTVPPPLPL
The next assay deals with Trypsin (Homo sapiens, UniProt P07477+P07478+P35030). The assay is described as follows: Inhibition of human pancreas Trypsin using Boc-Gln-Ala-Arg-7-amido-4-methyl coumarin hydrobromide. Format: protein assay.
In a further assay the target is Plasminogen (Homo sapiens, UniProt P00747). The assay is described as follows: Inhibition of human plasmin using pyroGlu-Phe-Lys-pNA.HCl.
Sequence of Plasminogen (P00747 97-580 limits assumed): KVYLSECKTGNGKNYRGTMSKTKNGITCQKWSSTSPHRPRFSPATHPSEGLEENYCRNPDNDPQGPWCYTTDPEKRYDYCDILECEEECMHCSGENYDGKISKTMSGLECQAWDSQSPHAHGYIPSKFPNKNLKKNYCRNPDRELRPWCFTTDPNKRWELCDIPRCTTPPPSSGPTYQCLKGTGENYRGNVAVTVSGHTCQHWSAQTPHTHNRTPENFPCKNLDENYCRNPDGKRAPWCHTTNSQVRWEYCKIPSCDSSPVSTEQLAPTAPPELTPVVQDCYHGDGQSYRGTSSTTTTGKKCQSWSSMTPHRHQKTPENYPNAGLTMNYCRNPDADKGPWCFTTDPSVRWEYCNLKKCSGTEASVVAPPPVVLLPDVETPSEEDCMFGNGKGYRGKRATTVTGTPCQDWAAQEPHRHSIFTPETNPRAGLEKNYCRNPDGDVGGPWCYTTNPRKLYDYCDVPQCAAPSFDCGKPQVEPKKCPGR
Sequence of Plasminogen (P00747 581-810 limits assumed): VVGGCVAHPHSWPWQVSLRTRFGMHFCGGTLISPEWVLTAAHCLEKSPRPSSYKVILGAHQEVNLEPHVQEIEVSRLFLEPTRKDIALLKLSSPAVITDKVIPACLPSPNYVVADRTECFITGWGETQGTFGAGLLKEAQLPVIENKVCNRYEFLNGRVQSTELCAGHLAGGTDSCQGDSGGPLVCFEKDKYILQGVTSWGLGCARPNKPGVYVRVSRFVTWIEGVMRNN
The nature of assay [2]: Cytotoxicity against human LNCaP-C42B4 cells assessed as cell survival at 10 uM after 72 hrs by calcein AM assay. The class given is functional. Conditions: LNCaP-C42B4, 72 h, read-out: Activity.
The test system of assay [3] is DU-145. The assay is described as follows: Antiinvasion activity in human DU145 cells assessed as inhibition of FBS-induced cell invaded to lower surface at 10 uM for 3 days by matrigel assay. The class given is functional. Conditions: DU-145, 72 h.
The test system of assay [4] is PC-3. The assay is described as follows: Cytotoxicity against human PC3 cells assessed as cell survival at 10 uM after 72 hrs by calcein AM assay. The following applies: PC-3, 72 h, read-out: Activity. Format: functional.
The subject of assay [5] is DU-145. The assay is described as follows: Cytotoxicity against human DU145 cells assessed as cell survival at 10 uM after 72 hrs by calcein AM assay. Format: functional. The following applies: DU-145, 72 h, read-out: Activity.
For assay [6], the system named is PC-3. The assay is described as follows: Antiinvasion activity in human PC3 cells assessed as inhibition of FBS-induced cell invaded to lower surface at 10 uM for 3 days by matrigel assay. The following applies: PC-3, 72 h. The class given is functional.
Assay [7] can be described thus: Antiinvasion activity in human LNCaP-C42B4 cells assessed as inhibition of FBS-induced cell invaded to lower surface at 10 uM for 3 days by matrigel assay. Format: functional. The following applies: LNCaP-C42B4, 72 h.

Consider `N=C(N)c1ccc(Oc2cc(Oc3ccc(C(=N)N)cc3)cc(C(=O)NC3CCN(CCO)CC3)c2)cc1`, for which the values for the Ki (on Prothrombin; in assay [1]; at Coagulation factor X) were 1780 nM, 204 nM and 640 nM, respectively.

On to `N=C(N)c1ccc(Oc2cc(OCc3ccc(Br)nc3)cc(C(=O)N[C@H]3CC[C@H](N)CC3)c2)cc1`, for which the Ki (as a rule, a measure of affinity in units of concentration, obtained from inhibition or displacement) on Prothrombin was 3980 nM; in assay [1], 793 nM; on Coagulation factor X, 3680 nM; at Trypsin it was more than 3000 nM.

Regarding `N=C(N)c1ccc(Oc2cc(Oc3ccc(N)cc3)cc(C(=O)N[C@H]3CC[C@H](N)CC3)c2)cc1`, the Ki was 1130 nM in assay [1] and more than 3000 nM at Trypsin.

Regarding `CC1CCC(C(=O)Nc2cc(Oc3ccc(C(=N)N)cc3)cc(Oc3ccc(C(=N)N)cc3)c2)CC1` (stereo not drawn), the Ki at Prothrombin worked out at 2340 nM; on Plasminogen, 1200 nM; in assay [1], 545 nM; on Coagulation factor X, 743 nM; on Trypsin it was 516 nM.

Regarding `N=C(N)c1ccc(Oc2cc(NS(=O)(=O)c3ccc(F)cc3)cc(Oc3ccc(C(=N)N)cc3)c2)cc1`, the Ki came out at 4850 nM on Prothrombin, 1980 nM in assay [1], 1160 nM at Coagulation factor X and 1388 nM on Trypsin.

Consider `N=C(N)c1ccc(Oc2cc(Oc3ccc(C(=N)N)cc3)cc(C(N)=O)c2)cc1`, for which the Ki at Prothrombin was 1060 nM; in assay [1], 1620 nM; at Coagulation factor X, 785 nM; at Trypsin, 640 nM.

On to `N=C(N)c1ccc(Oc2cc(N)cc(Oc3ccc(C(=N)N)cc3)c2)cc1`, for which the inhibitory constant (Ki) on Prothrombin stood at 2820 nM; in [1] it was 1060 nM; on Coagulation factor X it was 851 nM; on Trypsin, 534 nM.

For the compound `N=C(N)c1ccc(Oc2cc(OCc3ccc(Br)cc3)cc(C(=O)N[C@H]3CC[C@H](N)CC3)c2)cc1`, the viability at 10 µM in [2] is 65%; in the assay with PC-3 [4], 93%; in the assay with DU-145 [5], 78%. The inhibition (commonly the share of the control response that was lost under treatment) at 10 µM came to 61% in the assay with DU-145 [3], 51% in the assay on PC-3 [6] and 76% in assay [7]. The Ki was determined as 3970 nM at Prothrombin, 260 nM in [1], 2090 nM at Coagulation factor X and 2064 nM on Trypsin.

Regarding `N=C(N)c1ccc(COc2cc(OCc3ccc(C(=N)N)cc3)cc(C(=O)N[C@H]3CC[C@H](N)CC3)c2)cc1`, the Ki at Prothrombin was 1640 nM; in assay [1] it was 23 nM; on Coagulation factor X, 1560 nM; at Trypsin, 1022 nM.

Consider `N=C(N)c1ccc(Oc2cc(Oc3ccc(NC(=O)CCN)cc3)cc(C(=O)N[C@H]3CC[C@H](N)CC3)c2)cc1`, for which the Ki on Prothrombin is 3250 nM; in assay [1] it was 116 nM; at Coagulation factor X, 3580 nM; on Trypsin it was more than 3000 nM.

Turning to `NCc1ccc(Oc2cc(Oc3ccc(CN)cc3)cc(C(=O)N[C@H]3CC[C@H](N)CC3)c2)cc1`, the Ki in [1] amounted to 1700 nM; at Trypsin it was 3850 nM.

As for `N=C(N)c1ccc(Oc2cc(Oc3ccc(C(=N)N)cc3)cc(C(=O)Nc3ccc(F)cc3)c2)cc1`, the Ki on Prothrombin is 2100 nM; on Plasminogen it was 2670 nM; in assay [1], 591 nM; at Coagulation factor X, 1880 nM; at Trypsin it was 1636 nM.

For `N=C(N)c1ccc(Oc2cc(NC(=O)C3CCN(CCN)CC3)cc(Oc3ccc(C(=N)N)cc3)c2)cc1`, the Ki worked out at 2530 nM on Prothrombin; 2410 nM on Plasminogen; 18 nM in [1]; 62 nM at Coagulation factor X; 1338 nM on Trypsin.

As for `N=C(N)c1ccc(Oc2cc(OCc3ccc(Cl)cc3)cc(C(=O)N[C@H]3CC[C@H](N)CC3)c2)cc1`, the Ki in [1] turned out to be 470 nM.

`N=C(N)c1ccc(Oc2ccc(Oc3ccc(C(=N)N)cc3)cc2)cc1`: the Ki in assay [1] was 200 nM.

Consider `N=C(N)c1ccc(Oc2cc(Oc3ccc(N)nc3)cc(C(=O)N[C@H]3CC[C@H](N)CC3)c2)cc1`, for which the Ki in assay [1] was 2030 nM; at Trypsin it was more than 3000 nM.

With `N=C(N)c1ccc(Oc2cc(Oc3ccc(C(=N)N)cc3)cc(C(=O)NC3CCC(O)CC3)c2)cc1` (stereo not drawn), the Ki was 1240 nM at Prothrombin, 301 nM in assay [1] and 538 nM on Coagulation factor X.

Regarding `N=C(N)c1cccc(C[C@@H](NS(=O)(=O)c2cccc(C3CCC(N)=NC3)c2)C(=O)N2CCC(CCN)CC2)c1` (stereo partly drawn), the Ki in [1] turned out to be 0.08 nM.

As to `N=C(N)c1cccc(COc2cc(OCc3cccc(C(=N)N)c3)cc(C(=O)N[C@H]3CC[C@H](N)CC3)c2)c1`, the Ki stood at 1290 nM at Prothrombin, 3 nM in assay [1], 157 nM at Coagulation factor X and 901 nM on Trypsin.

Turning to `CCOC(=O)N1CCC(NC(=O)c2cc(Oc3ccc(C(=N)N)cc3)cc(Oc3ccc(C(=N)N)cc3)c2)CC1`, the inhibition constant (Ki) at Plasminogen amounted to 2630 nM; in [1] it was 1850 nM; on Coagulation factor X it was 1030 nM; at Trypsin, 471 nM.

Turning to `CC1CCC(NC(=O)c2cc(Oc3ccc(C(=N)N)cc3)cc(Oc3ccc(C(=N)N)cc3)c2)CC1` (stereo not drawn), the Ki worked out at 744 nM on Prothrombin; 3610 nM on Plasminogen; 770 nM in assay [1]; 282 nM at Coagulation factor X; 253 nM at Trypsin.

For the compound `N=C(N)c1ccc(Oc2cc(Oc3ccc(C(=N)N)cc3)cc(C(=O)NCC3CCCCC3)c2)cc1`, the Ki on Prothrombin turned out to be 2410 nM; on Plasminogen it was 2160 nM; in assay [1], 411 nM; at Coagulation factor X, 73 nM; on Trypsin, 571 nM.

Regarding `N=C(N)c1ccc(Oc2cc(Oc3ccc(C(=N)N)cc3)cc(C(=O)NC3CCCCC3)c2)cc1`, the Ki is 1640 nM at Prothrombin; 2390 nM at Plasminogen; 592 nM in assay [1]; 190 nM at Coagulation factor X; 179 nM on Trypsin.

Regarding `N=C(N)c1ccc(Oc2cc(NC(=O)C3CCN(CCO)CC3)cc(Oc3ccc(C(=N)N)cc3)c2)cc1`, the Ki came to 4200 nM on Prothrombin, 18 nM in [1], 1160 nM on Coagulation factor X and 1468 nM at Trypsin.

`N=C(N)c1ccc(Oc2cc(OCc3cccc(C(=N)N)c3)cc(C(=O)N[C@H]3CC[C@H](N)CC3)c2)cc1`: the Ki on Prothrombin is 2680 nM; in assay [1] it was 6 nM; at Coagulation factor X it was 1140 nM; at Trypsin, 1541 nM.

Consider `N=C(N)c1ccc(Oc2cc(NS(=O)(=O)c3ccc4ccccc4c3)cc(Oc3ccc(C(=N)N)cc3)c2)cc1`, for which the Ki in assay [1] was 1790 nM; at Coagulation factor X, 876 nM; at Trypsin, 3000 nM.

With `N=C(N)c1ccc(Oc2cc(Oc3ccc(C(=N)N)cc3)cc(C(=O)N3CCc4ccccc4C3)c2)cc1`, the Ki at Prothrombin is 1560 nM; on Plasminogen, 3850 nM; in assay [1], 730 nM; at Coagulation factor X, 273 nM; on Trypsin it was 225 nM.

Turning to `N=C(N)c1ccc(Oc2cc(Oc3ccc(C(=N)N)cc3)cc(C(=O)N3CCC(C(=O)O)CC3)c2)cc1`, the Ki on Trypsin is on record as 718 nM.

Regarding `N=C(N)c1ccc(Oc2cc(Oc3ccc(C(=N)N)cc3)cc(C(=O)NCC3CCC(O)CC3)c2)cc1` (stereo not drawn), the Ki turned out to be 2850 nM on Prothrombin, 1180 nM in assay [1], 920 nM on Coagulation factor X and 1550 nM at Trypsin.

Consider `N=C(N)c1ccc(Oc2cc(Oc3ccc(C(=N)N)cc3)cc(C(=O)NC3CCN(CCCN)CC3)c2)cc1`, for which the Ki on Prothrombin was 1280 nM; in assay [1], 141 nM; at Coagulation factor X, 415 nM; at Trypsin it was 1035 nM.

As for `N=C(N)c1ccc(COc2cc(Oc3ccc(C(=N)N)cc3)cc(C(=O)N[C@H]3CC[C@H](N)CC3)c2)cc1`, the Ki at Prothrombin came to 2810 nM; in [1], 10 nM; at Trypsin, 1868 nM.

Consider `N=C(N)c1ccc(Oc2cc(Oc3ccc(C(N)=O)cc3)cc(C(=O)N[C@H]3CC[C@H](N)CC3)c2)cc1`, for which the Ki on Prothrombin is 3540 nM; in assay [1], 824 nM; at Trypsin it was more than 3000 nM.
